This note sets out measurements from US20210380548A1, “Fused [1,2,4]Thiadiazine Derivatives Which Act as KAT Inhibitors of the MYST Family” (CTxT Pty Limited, priority 2017, published 2021).

In assay [1] the target is T1, QKF-KAT6B (Homo sapiens, UniProt Q8WYB5).
T1 construct: purchased SignalChem K315-381BG
In words: Revised Acetyltransferase Biochemical Assay, KAT6B. The following applies: 8 nM KAT6B, 1 μM AcCoA, 100 nM histone H3.1, 90 min. The source says:
KAT6B was obtained from SignalChem, catalog ID: K315-381BG

Assay [2] has as its target T2, TIP60-KAT5 (Homo sapiens, UniProt Q92993).
T2 construct: encoding amino acid residues 2 to 461 (Uniprot Q92993-2) of human KAT5 isoform; made in house; host or cells: E. coli BL21 DE3
The assay is described as follows: Revised Acetyltransferase Biochemical Assay, KAT5. The following applies: 10 nM KAT5, 1 μM AcCoA, 100 nM histone H4, 90 min.

The test system of assay [3] is histone H2A.Z Lysine 7 acetylation (TIP60 mediated) in U2OS cells. In words: H2A.Z Lysine 7 Acetylation Biomarker Assay (384-well, U2OS). The following applies: Homo sapiens, serum free medium, 24 hours incubation. The format is cell-based. In outline: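 U2OS cells (3,000/well) were treated with compound for 24 h after a serum-free wash, then fixed. They were stained with anti-H2A.ZK7ac, an AlexaFluor 488 secondary and Hoechst. High-content imaging gave mean nuclear intensity per cell, converted to percent inhibition against on-plate controls, and IC50 came from a four-parameter logistic fit.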

Assay [4] has as its target T3, HBO-KAT7 (Homo sapiens, UniProt O95251).
T3 construct: encoding amino acid residues 325 to 611 (Uniprot 095251-1) of human KAT7; made in house; host or cells: E. coli BL21 DE3 RIL
The assay is described as follows: Revised Acetyltransferase Biochemical Assay, KAT7. Particulars: Table 9 (HBO-KAT7), 1 μM Acetyl coenzyme A.

Assay [5] concerns the target T4, MOZ-KAT6A (Homo sapiens, UniProt Q92794, A567V).
T4 construct: encoding amino acid residues 507 to 778 (Uniprot Q92794-1) of human KAT6A; made in house; host or cells: E. coli BL21 DE3
The assay is described as follows: Revised Acetyltransferase Biochemical Assay, KAT6A. Particulars: Table 8 (MOZ-KAT6A), 1 μM Acetyl coenzyme A.

Assay [6] concerns histone H3K23 acetylation (KATE mediated) in U2OS cells. The assay is described as follows: Histone H3 Lysine 23 Acetylation Biomarker Assay (U2OS). It counts as cell-based. The following applies: Homo sapiens, 96 well, 24 hours incubation. In outline: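 U2OS cells were treated with compound for 24 h, then fixed and immunostained for H3K23ac with Hoechst nuclear counterstain. Per-nucleus Alexa647 intensity was quantified by high-content imaging and converted to % inhibition against DMSO and 10 μM reference-inhibitor controls. IC50 was derived from a four-parameter logistic fit.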

The target in assay [7] is T5, MOF-KAT8 (Homo sapiens, UniProt Q9H7Z6).
T5 sequence (Q9H7Z6 177-447): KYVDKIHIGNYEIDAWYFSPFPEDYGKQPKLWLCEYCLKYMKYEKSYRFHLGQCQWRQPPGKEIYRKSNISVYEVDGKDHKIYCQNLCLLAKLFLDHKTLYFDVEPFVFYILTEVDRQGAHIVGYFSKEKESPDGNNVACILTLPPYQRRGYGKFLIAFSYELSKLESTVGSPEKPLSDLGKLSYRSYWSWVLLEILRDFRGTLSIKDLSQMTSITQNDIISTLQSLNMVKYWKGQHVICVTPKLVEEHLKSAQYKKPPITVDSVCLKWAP
In words: Revised Acetyltransferase Biochemical Assay, KAT8.

Assay [8] deals with T5, MOF-KAT8. In words: Acetyltransferase biochemical assay (AlphaScreen), KAT8. Particulars: Table 4 (MOF-KAT8); 0.4 μM Acetyl coenzyme A, histone H4, 20 nM enzyme. A general note: Alpha assays give light when donor and acceptor beads are brought close together.
The test system of assay [9] is histone H3 Lysine 14 acetylation (HBO1 mediated) in U2OS cells. The assay is described as follows: Histone H3 Lysine 14 Acetylation Biomarker Assay (384-well, U2OS). The format is cell-based. The following applies: Homo sapiens, serum free medium, 24 hours incubation. A digest of the protocol: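 U2OS cells in serum-free medium treated with compound 24 h; DMSO and 10 μM reference inhibitor as 0% and 100% controls. Fixed cells immunostained for H3K14ac (AlexaFluor 488) with Hoechst nuclear mask, imaged by high-content analysis; per-cell intensity converted to % inhibition, IC50 by four-parameter logistic fit.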

T1 sequence (Q8WYB5 whole entry): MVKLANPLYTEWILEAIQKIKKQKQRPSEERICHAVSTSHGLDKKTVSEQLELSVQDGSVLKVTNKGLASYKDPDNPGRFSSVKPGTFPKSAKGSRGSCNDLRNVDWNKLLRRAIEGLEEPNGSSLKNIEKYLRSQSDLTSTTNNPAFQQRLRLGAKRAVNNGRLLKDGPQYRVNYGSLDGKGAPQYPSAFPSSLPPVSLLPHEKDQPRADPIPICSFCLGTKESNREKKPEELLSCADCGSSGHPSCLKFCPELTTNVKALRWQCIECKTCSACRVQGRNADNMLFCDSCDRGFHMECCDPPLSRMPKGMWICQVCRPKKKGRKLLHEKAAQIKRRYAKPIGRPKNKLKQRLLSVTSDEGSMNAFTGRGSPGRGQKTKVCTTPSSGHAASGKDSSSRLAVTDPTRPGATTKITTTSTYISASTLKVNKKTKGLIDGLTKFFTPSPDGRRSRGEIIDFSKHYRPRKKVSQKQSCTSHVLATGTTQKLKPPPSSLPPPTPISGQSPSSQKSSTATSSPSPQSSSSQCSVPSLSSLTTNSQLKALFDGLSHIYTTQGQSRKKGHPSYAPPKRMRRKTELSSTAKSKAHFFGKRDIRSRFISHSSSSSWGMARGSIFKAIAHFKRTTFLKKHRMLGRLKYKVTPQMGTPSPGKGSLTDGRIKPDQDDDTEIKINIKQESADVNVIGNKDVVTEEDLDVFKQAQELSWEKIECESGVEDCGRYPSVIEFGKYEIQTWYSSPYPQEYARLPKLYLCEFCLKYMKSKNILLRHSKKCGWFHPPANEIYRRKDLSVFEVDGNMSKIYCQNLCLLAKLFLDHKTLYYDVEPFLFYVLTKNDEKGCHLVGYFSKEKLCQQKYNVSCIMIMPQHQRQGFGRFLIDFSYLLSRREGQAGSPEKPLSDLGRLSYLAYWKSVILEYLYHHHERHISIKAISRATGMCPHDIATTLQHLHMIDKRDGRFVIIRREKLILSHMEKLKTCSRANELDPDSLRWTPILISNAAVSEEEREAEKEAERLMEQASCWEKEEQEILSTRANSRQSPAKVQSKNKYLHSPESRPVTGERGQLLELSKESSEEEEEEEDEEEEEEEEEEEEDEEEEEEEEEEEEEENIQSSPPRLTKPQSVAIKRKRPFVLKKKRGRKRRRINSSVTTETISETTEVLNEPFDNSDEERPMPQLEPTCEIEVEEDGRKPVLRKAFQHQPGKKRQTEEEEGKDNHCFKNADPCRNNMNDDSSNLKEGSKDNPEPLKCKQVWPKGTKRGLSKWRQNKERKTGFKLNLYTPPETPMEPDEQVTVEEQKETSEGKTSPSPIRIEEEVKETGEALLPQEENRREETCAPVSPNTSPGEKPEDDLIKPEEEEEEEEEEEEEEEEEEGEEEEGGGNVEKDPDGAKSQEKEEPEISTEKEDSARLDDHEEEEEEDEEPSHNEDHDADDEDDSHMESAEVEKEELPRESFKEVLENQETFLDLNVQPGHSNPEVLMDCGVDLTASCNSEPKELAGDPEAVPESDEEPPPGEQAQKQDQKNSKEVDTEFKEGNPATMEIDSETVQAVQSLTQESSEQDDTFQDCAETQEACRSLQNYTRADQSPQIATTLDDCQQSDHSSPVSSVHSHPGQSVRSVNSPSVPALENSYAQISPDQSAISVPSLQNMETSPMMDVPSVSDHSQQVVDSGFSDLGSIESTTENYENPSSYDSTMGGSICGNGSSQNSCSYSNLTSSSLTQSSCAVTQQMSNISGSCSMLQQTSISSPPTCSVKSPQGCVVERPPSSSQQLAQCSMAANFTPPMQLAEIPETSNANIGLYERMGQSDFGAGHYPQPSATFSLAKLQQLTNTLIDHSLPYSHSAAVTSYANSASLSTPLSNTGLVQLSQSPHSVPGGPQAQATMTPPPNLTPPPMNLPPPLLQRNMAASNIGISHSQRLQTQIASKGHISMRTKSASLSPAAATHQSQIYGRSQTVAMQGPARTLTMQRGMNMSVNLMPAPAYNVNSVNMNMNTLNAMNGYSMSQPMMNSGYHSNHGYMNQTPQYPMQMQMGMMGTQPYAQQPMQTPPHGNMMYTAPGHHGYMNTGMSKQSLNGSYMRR
T3 sequence (O95251 with tags, fused parts or gaps): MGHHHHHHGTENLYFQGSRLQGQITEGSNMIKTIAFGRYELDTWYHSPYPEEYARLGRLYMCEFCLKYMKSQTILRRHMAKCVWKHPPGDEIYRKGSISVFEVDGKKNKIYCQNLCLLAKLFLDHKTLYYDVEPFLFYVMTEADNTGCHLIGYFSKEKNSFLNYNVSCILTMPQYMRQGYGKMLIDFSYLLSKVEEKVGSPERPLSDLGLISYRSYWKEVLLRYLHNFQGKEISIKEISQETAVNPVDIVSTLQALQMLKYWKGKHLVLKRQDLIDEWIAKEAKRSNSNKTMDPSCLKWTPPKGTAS
T4 sequence (Q92794 507-778 A567V limits assumed): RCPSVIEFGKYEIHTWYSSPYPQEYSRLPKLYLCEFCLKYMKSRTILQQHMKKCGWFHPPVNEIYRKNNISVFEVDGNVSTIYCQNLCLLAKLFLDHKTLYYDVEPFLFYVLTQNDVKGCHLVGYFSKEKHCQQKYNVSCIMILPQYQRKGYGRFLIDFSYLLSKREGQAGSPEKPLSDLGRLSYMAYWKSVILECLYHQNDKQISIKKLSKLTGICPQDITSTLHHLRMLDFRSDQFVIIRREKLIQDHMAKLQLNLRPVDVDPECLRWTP
T2 sequence (Q92993 2-461 isoform Q92993-2): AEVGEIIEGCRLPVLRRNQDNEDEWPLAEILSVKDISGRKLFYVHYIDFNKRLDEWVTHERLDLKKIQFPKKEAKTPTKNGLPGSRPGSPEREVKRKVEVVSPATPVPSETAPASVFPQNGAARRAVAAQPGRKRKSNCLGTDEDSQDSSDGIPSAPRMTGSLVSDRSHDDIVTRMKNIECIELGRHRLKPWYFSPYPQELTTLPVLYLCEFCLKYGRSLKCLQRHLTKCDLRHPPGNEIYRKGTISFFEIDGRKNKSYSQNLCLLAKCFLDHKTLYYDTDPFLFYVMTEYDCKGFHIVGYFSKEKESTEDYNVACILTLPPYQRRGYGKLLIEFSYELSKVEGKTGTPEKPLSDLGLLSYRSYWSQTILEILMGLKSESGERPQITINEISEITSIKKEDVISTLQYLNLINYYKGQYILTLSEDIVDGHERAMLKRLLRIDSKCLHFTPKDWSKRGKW

Broadly, the IC50 is the concentration that inhibits the measured activity by half. High values mean weaker potency, low ones greater potency. Take `O=C(NCC(c1cccc(Cl)c1)c1ncco1)C1=Nc2ccc(I)cc2S(=O)(=O)N1` (centres unmarked) [Example 163]: the IC50 in assay [1] came out at 117 nM; in [2], 221 nM; in assay [3] it was 1520 nM; in assay [4], 115 nM; in [5] it was 17 nM; in assay [6] it was 453 nM. Moreover, the values for the IC50 in assay [7], in assay [8] and in assay [9] were 14700 nM, 9780 nM and 892 nM, respectively.
On to `O=C(NCC(c1ccccc1)c1nccs1)C1=Nc2ccc(Cl)cc2S(=O)(=O)N1` (centres unmarked) [Example 166], for which the IC50 in [1] came to 72 nM; in [2], 714 nM; in [3], 5350 nM; in assay [4], 183 nM; in assay [5] it was 7 nM; in [6], 93 nM. Moreover, the IC50 in [7] was determined as 36800 nM; in assay [9], 611 nM.
As for `O=C(NCC(c1ccccc1)c1nccs1)C1=Nc2ccc(I)cc2S(=O)(=O)N1` (centres unmarked) [Example 167], the IC50 in assay [1] is 27 nM; in [2], 56 nM; in [3], 516 nM; in [4] it was 62 nM; in assay [5] it was 4 nM; in assay [6], 57 nM. Besides, the figures for the IC50 in [7], in assay [8] and in assay [9] were 8400 nM, 6480 nM and 349 nM, respectively.
As to `O=C(NCC(c1ccccc1)c1nncs1)C1=Nc2ccc(I)cc2S(=O)(=O)N1` (centres unmarked) [Example 168], the IC50 in assay [1] was 37 nM; in [2], 458 nM; in assay [3], 8850 nM; in [4], 621 nM; in assay [5], 8 nM; in assay [6] it was 525 nM. The 50% inhibitory concentration (IC50) came out at 26500 nM in [7], 3390 nM in assay [8] and 6440 nM in assay [9].
For the compound `O=C(NCCc1ccccc1-c1n[nH]c(=O)o1)C1=Nc2ccc(I)cc2S(=O)(=O)N1` [Example 172], the IC50 is 281 nM in assay [1]; 25 nM in [2]; 2090 nM in assay [3]; 41 nM in assay [4]; 5 nM in assay [5]; more than 10000 nM in assay [6]. For the same compound, the IC50 in [7] was determined as 6100 nM; in assay [8], 5130 nM; in assay [9] it was 2870 nM.
Turning to `O=C(NCC(c1ncco1)c1ccccc1OC(F)F)C1=Nc2ccc(I)cc2S(=O)(=O)N1` (centres unmarked) [Example 179], the IC50 turned out to be 88 nM in assay [1]; 29 nM in assay [2]; 1100 nM in assay [3]; 28 nM in [4]; 5 nM in assay [5]; 112 nM in assay [6]. Besides, the IC50 in assay [7] amounted to 9660 nM; in assay [8], 10400 nM; in assay [9] it was 219 nM.
Regarding `O=C(NCC(c1ccccc1)c1nnc(CC(F)(F)F)o1)C1=Nc2ccc(I)cc2S(=O)(=O)N1` (centres unmarked) [Example 181], the IC50 in assay [1] was 77 nM; in assay [2], 123 nM; in [3] it was more than 40000 nM; in [4], 320 nM; in [5] it was 32 nM; in assay [6], more than 10000 nM. The results for the IC50 in assay [7], in assay [8] and in [9] were 31200 nM, 104000 nM and 35300 nM, respectively.
For `O=C(NCC(c1ccccc1)c1ncco1)C1=Nc2ccc(Cl)cc2S(=O)(=O)N1` (centres unmarked) [Example 182], the IC50 in assay [1] stood at 59 nM; in [2], 284 nM; in [3] it was 8100 nM; in assay [4], 237 nM; in assay [5] it was 6 nM; in assay [6], 84 nM. The results for the IC50 in [7], in assay [8] and in assay [9] were 24500 nM, 50000 nM and 488 nM, respectively.
`COc1cc(C)cc(C(CNC(=O)C2=Nc3ccc(I)cc3S(=O)(=O)N2)c2ncco2)c1` (centres unmarked) [Example 196, 7-iodo-N-(2-(3-methoxy-5-methylphenyl)-2-(oxazol-2-yl)ethyl)-2H-benzo[e][1,2,4]thiadiazine-3-carboxamide 1,1-dioxide]: the IC50 in assay [1] is 991 nM; in assay [2] it was 818 nM; in [3], 882 nM; in [4] it was 25 nM; in assay [5], 80 nM; in assay [6], 1010 nM. Moreover, the IC50 in [7] amounted to 78600 nM; in assay [9] it was 95 nM.
In the case of `CN(CC(c1ccccc1)c1ncco1)C(=O)C1=Nc2ccc(I)cc2S(=O)(=O)N1` (centres unmarked) [Example 203], the IC50 is 3310 nM in assay [1]; 3750 nM in assay [2]; more than 40000 nM in [3]; 1670 nM in assay [4]; 427 nM in [5]; more than 10000 nM in assay [6]. Further, the IC50 in assay [7] turned out to be 115000 nM; in assay [8], 103000 nM; in assay [9], 2260 nM.
As for `O=C(NCC(c1ccccc1)c1ncco1)C1=Nc2ccc(-c3c[nH]nn3)cc2S(=O)(=O)N1` (centres unmarked) [Example 213, N-(2-(Oxazol-2-yl)-2-phenylethyl)-7-(1H-1,2,3-triazol-4-yl)-2H-benzo[e][1,2,4]thiadiazine-3-carboxamide 1,1-dioxide], the IC50 in [1] worked out at 22 nM; in [2], 193 nM; in assay [3], 29500 nM; in assay [4], 111 nM; in [5], 2 nM; in [6] it was 116 nM. For the same compound, the IC50 in assay [7] came out at 15200 nM; in [8], 3540 nM; in [9] it was 4940 nM.
In the case of `O=C(NCC(c1cccc(O)c1)c1ncco1)C1=Nc2ccc(I)cc2S(=O)(=O)N1` (centres unmarked) [Example 215, N-(2-(3-Hydroxyphenyl)-2-(oxazol-2-yl)ethyl)-7-iodo-2H-benzo[e][1,2,4]thiadiazine-3-carboxamide 1,1-dioxide], the IC50 in assay [1] came to 65 nM; in assay [2] it was 25 nM; in [3] it was 4440 nM; in [4] it was 20 nM; in [5], 4 nM; in [6], 953 nM. Also, the IC50 was 5720 nM in [7], 8740 nM in [8] and 221 nM in assay [9].
As to `COCCC(CNC(=O)C1=Nc2ccc(I)cc2S(=O)(=O)N1)c1ccccc1` (centres unmarked) [Example 220, 7-Iodo-N-(4-methoxy-2-phenylbutyl)-2H-benzo[e][1,2,4]thiadiazine-3-carboxamide 1,1-dioxide], the IC50 in [1] was 134 nM; in assay [2] it was 1430 nM; in [3], 7810 nM; in [4] it was 214 nM; in assay [5], 20 nM; in [6], 540 nM. The IC50 in assay [7] is 26800 nM; in assay [9], 917 nM.
Take `O=C(NCC(F)(F)c1ccccc1OC(F)F)C1=Nc2ccc(I)cc2S(=O)(=O)N1` [Example 231, N-(2-(2-(difluoromethoxy)phenyl)-2,2-difluoroethyl)-7-iodo-2H-benzo[e][1,2,4]thiadiazine-3-carboxamide 1,1-dioxide]: the IC50 in assay [1] is 3240 nM; in assay [2] it was 306 nM; in assay [3], 4520 nM; in assay [4], 143 nM; in assay [5] it was 100 nM; in [6], more than 10000 nM. Moreover, the IC50 in assay [7] is 6530 nM; in [9], 3880 nM.
